The assay has as its target PKMYT1 (Homo sapiens (Human), UniProt Q99640). Nature of the assay: PKMYT1 HTRF Assay. Format: binding. As to conditions: Tracer 178, GST-Tb; compound 10 μM to 0.5 nM; read-out: MYT1 HTRF IC50. Summed up: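 Compound (final 10 μM to 0.5 nM) preincubated with PKMYT1 enzyme 15 min at 25° C, then Tracer 178 added for 60 min at 25° C. GST-Tb added, 15 min at 25° C, before HTRF readout.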
In general terms: TR-FRET usually uses a lanthanide donor and a delayed reading to cut background.

Sequence of PKMYT1 (Q99640 whole entry): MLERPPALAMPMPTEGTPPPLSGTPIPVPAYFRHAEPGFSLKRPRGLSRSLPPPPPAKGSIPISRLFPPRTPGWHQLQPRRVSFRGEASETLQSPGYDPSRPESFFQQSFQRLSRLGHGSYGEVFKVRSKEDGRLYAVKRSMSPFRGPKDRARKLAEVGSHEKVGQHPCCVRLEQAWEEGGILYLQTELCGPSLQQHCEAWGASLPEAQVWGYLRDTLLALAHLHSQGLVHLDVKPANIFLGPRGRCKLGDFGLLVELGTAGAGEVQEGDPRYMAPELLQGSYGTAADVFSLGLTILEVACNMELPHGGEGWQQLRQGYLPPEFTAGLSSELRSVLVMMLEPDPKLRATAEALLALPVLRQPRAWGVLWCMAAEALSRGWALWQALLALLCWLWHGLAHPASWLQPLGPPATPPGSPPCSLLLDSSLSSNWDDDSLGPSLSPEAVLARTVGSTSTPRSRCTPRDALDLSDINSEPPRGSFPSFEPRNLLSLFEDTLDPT

As usually defined, the IC50 is the midpoint of a concentration-inhibition curve. `Cc1ccc(O)c(C)c1-c1cnc2[nH]c(-c3cnc(N(C)C4COC4)nc3)cc2c1C#N` [Example 96, (R)-5-(3-hydroxy-2,6-dimethylphenyl)-2-(2-(methyl(oxetan-3-yl)amino)pyrimidin-5-yl)-1H-pyrrolo[2,3-b]pyridine-4-carbonitrile]: the IC50 lay in the range of 10 to 50 nM.
On to `Cc1ccc(O)c(C)c1-c1cnc2[nH]c(-c3cnc(N4CC(C)(O)C4)nc3)cc2c1C#N` [Example 97, (R)-5-(3-hydroxy-2,6-dimethylphenyl)-2-(2-(3-hydroxy-3-methylazetidin-1-yl)pyrimidin-5-yl)-1H-pyrrolo[2,3-b]pyridine-4-carbonitrile], for which the half-maximal inhibitory concentration (IC50) was under 10 nM.
The value for `Cc1ccc(O)c(C)c1-c1cnc2[nH]c(-c3cnc(NC4COC4)nc3)cc2c1C#N` [Example 98, (R)-5-(3-hydroxy-2,6-dimethylphenyl)-2-(2-(oxetan-3-ylamino)pyrimidin-5-yl)-1H-pyrrolo[2,3-b]pyridine-4-carbonitrile] was under 10 nM.
As for `Cc1ccc(O)c(C)c1-c1cnc2[nH]c(-c3cnc(N4C5CC[C@@H]4COC5)nc3)cc2c1C#N` [Example 99, (5R)-2-(2-(3-oxa-8-azabicyclo[3.2.1]octan-8-yl)pyrimidin-5-yl)-5-(3-hydroxy-2,6-dimethylphenyl)-1H-pyrrolo[2,3-b]pyridine-4-carbonitrile], the half-maximal inhibitory concentration (IC50) is under 10 nM.
Consider `Cc1ccc(O)c(C)c1-c1cnc2[nH]c(-c3cnc(N4CC(O)C(F)C4)nc3)cc2c1C#N` [Example 100, (R)-2-(2-((3S,4S)-3-fluoro-4-hydroxypyrrolidin-1-yl)pyrimidin-5-yl)-5-(3-hydroxy-2,6-dimethylphenyl)-1H-pyrrolo[2,3-b]pyridine-4-carbonitrile], for which the IC50 is under 10 nM.
The value for `Cc1ccc(O)c(C)c1-c1cnc2[nH]c(-c3cnc(NCCO)nc3)cc2c1C#N` [Example 101, (R)-5-(3-hydroxy-2,6-dimethylphenyl)-2-(2-((2-hydroxyethyl)amino)pyrimidin-5-yl)-1H-pyrrolo[2,3-b]pyridine-4-carbonitrile] was under 10 nM.
Next, `Cc1ccc(O)c(C)c1-c1cnc2[nH]c(-c3cnc(NC4CC(O)C4)nc3)cc2c1C#N` [Example 102, (R)-5-(3-hydroxy-2,6-dimethylphenyl)-2-(2-((3-hydroxycyclobutyl)amino)pyrimidin-5-yl)-1H-pyrrolo[2,3-b]pyridine-4-carbonitrile]: under 10 nM.
Next, `CC#Cc1ncc(-c2cc3c(C#N)c(-c4c(C)ccc(O)c4C)cnc3[nH]2)cn1` [Example 104, (R)-5-(3-hydroxy-2,6-dimethylphenyl)-2-(2-(prop-1-yn-1-yl)pyrimidin-5-yl)-1H-pyrrolo[2,3-b]pyridine-4-carbonitrile]: under 10 nM.
For the molecule `Cc1ccc(O)c(C)c1-c1cnc2[nH]c(-c3cnc(C(N)=O)nc3)cc2c1C#N` [Example 105, (R)-5-(4-cyano-5-(3-hydroxy-2,6-dimethylphenyl)-1H-pyrrolo[2,3-b]pyridin-2-yl)pyrimidine-2-carboxamide], the concentration for half-maximal inhibition (IC50) is under 10 nM.
Take `Cc1ccc(O)c(C)c1-c1cnc2[nH]c(-c3cnc(N)nc3)c(C)c2c1C#N` [Example 106, (R)-2-(2-aminopyrimidin-5-yl)-5-(3-hydroxy-2,6-dimethylphenyl)-3-methyl-1H-pyrrolo[2,3-b]pyridine-4-carbonitrile]: the IC50 is under 10 nM.
As to `Cc1ncc(-c2[nH]c3ncc(-c4c(C)ccc(O)c4C)c(C#N)c3c2C2CC2)cn1` [Example 108, 3-cyclopropyl-5-(3-hydroxy-2,6-dimethylphenyl)-2-(2-methylpyrimidin-5-yl)-1H-pyrrolo[2,3-b]pyridine-4-carbonitrile], the IC50 is 10 to 50 nM.
For `C#Cc1c(-c2cnc(C)nc2)[nH]c2ncc(-c3c(C)ccc(O)c3C)c(C#N)c12` [Example 109, (S)-3-ethynyl-5-(3-hydroxy-2,6-dimethylphenyl)-2-(2-methylpyrimidin-5-yl)-1H-pyrrolo[2,3-b]pyridine-4-carbonitrile], the IC50 is under 10 nM.
As for `Cc1ncc(-c2[nH]c3ncc(-c4c(C)ccc(O)c4C)c(C#N)c3c2C#CC(C)(C)O)cn1` [Example 110, (S)-5-(3-hydroxy-2,6-dimethylphenyl)-3-(3-hydroxy-3-methylbut-1-yn-1-yl)-2-(2-methylpyrimidin-5-yl)-1H-pyrrolo[2,3-b]pyridine-4-carbonitrile], the IC50 is under 10 nM.
The value for `Cc1ncc(-c2[nH]c3ncc(-c4c(C)ccc(O)c4C)c(C#N)c3c2C#CC2(O)COC2)cn1` [Example 111, (S)-5-(3-hydroxy-2,6-dimethylphenyl)-3-((3-hydroxyoxetan-3-yl)ethynyl)-2-(2-methylpyrimidin-5-yl)-1H-pyrrolo[2,3-b]pyridine-4-carbonitrile] was under 10 nM; that for `Cc1ncc(-c2[nH]c3ncc(-c4c(C)ccc(O)c4C)c(C#N)c3c2C(F)(F)F)cn1` [Example 112, 5-(3-hydroxy-2,6-dimethylphenyl)-2-(2-methylpyrimidin-5-yl)-3-(trifluoromethyl)-1H-pyrrolo[2,3-b]pyridine-4-carbonitrile] was 10 to 50 nM; that for `Cc1ncc(-c2[nH]c3ncc(-c4c(C)ccc(O)c4C)c(C#N)c3c2Sc2ccccc2)cn1` [Example 113, 5-(3-hydroxy-2,6-dimethylphenyl)-2-(2-methylpyrimidin-5-yl)-3-(phenylthio)-1H-pyrrolo[2,3-b]pyridine-4-carbonitrile] was 50 to 500 nM.
Regarding `Cc1ncc(-c2nc3cc(-c4c(C)ccc(O)c4C)cnc3[nH]2)cn1` [Example 114, 2,4-dimethyl-3-(2-(2-methylpyrimidin-5-yl)-3H-imidazo[4,5-b]pyridin-6-yl)phenol], the half-inhibitory concentration (IC50) lay within 50 to 500 nM.
The value for `Cc1ccc(O)c(C)c1-c1cnc2[nH]c(-c3cnc(NC4CC4)s3)nc2c1` [Example 115, 3-(2-(2-(cyclopropylamino)thiazol-5-yl)-3H-imidazo[4,5-b]pyridin-6-yl)-2,4-dimethylphenol] was 50 to 500 nM; that for `Cc1ccc(O)c(C)c1-c1cnc2[nH]c(-c3cnc(N)nc3)nc2c1C#N` [Example 116, (S)-2-(2-aminopyrimidin-5-yl)-6-(3-hydroxy-2,6-dimethylphenyl)-3H-imidazo[4,5-b]pyridine-7-carbonitrile] was under 10 nM.
The value for `Cc1ccc(O)c(C)c1-c1cnc2[nH]c(-c3cnn(CC(C)(C)O)c3)cc2c1C#N` [Example 117, (S)-5-(3-hydroxy-2,6-dimethylphenyl)-2-(1-(2-hydroxy-2-methylpropyl)-1H-pyrazol-4-yl)-1H-pyrrolo[2,3-b]pyridine-4-carbonitrile] was under 10 nM.
In the case of `Cc1ccc(O)c(C)c1-c1cnc2[nH]c(-c3cnn(C)c3)cc2c1C#N` [Example 118, (S)-5-(3-hydroxy-2,6-dimethylphenyl)-2-(1-methyl-1H-pyrazol-4-yl)-1H-pyrrolo[2,3-b]pyridine-4-carbonitrile], the IC50 was under 10 nM.
Next, `Cc1ccc(O)c(C)c1-c1cnc2[nH]c(-c3cnoc3)cc2c1C#N` [Example 119, (S)-5-(3-hydroxy-2,6-dimethylphenyl)-2-(isoxazol-4-yl)-1H-pyrrolo[2,3-b]pyridine-4-carbonitrile]: under 10 nM.
Turning to `Cc1ccc(O)c(C)c1-c1cnc2[nH]c(-c3cc[nH]n3)cc2c1C#N` [Example 120, (S)-5-(3-hydroxy-2,6-dimethylphenyl)-2-(1H-pyrazol-3-yl)-1H-pyrrolo[2,3-b]pyridine-4-carbonitrile], the half-maximal inhibitory concentration (IC50) was under 10 nM.
Next, `Cc1ccc(O)c(C)c1-c1cnc2[nH]c(-n3cncn3)cc2c1C#N` [Example 121, (S)-5-(3-hydroxy-2,6-dimethylphenyl)-2-(1H-1,2,4-triazol-1-yl)-1H-pyrrolo[2,3-b]pyridine-4-carbonitrile]: under 10 nM; `Cc1ccc(O)c(C)c1-c1cnc2[nH]c(-n3ccnc3)cc2c1C#N` [Example 122, (S)-5-(3-hydroxy-2,6-dimethylphenyl)-2-(1H-imidazol-1-yl)-1H-pyrrolo[2,3-b]pyridine-4-carbonitrile]: under 10 nM.
On to `Cc1ccc(O)c(C)c1-c1cnc2[nH]c(-c3cnc4[nH]ncc4c3)cc2c1C#N` [Example 123, (S)-5-(3-hydroxy-2,6-dimethylphenyl)-2-(1H-pyrazolo[3,4-b]pyridin-5-yl)-1H-pyrrolo[2,3-b]pyridine-4-carbonitrile], for which the IC50 was under 10 nM.
Next, `Cc1ccc(O)c(C)c1-c1cnc2[nH]c(-c3cnc[nH]3)cc2c1C#N` [Example 125, (S)-5-(3-hydroxy-2,6-dimethylphenyl)-2-(1H-imidazol-5-yl)-1H-pyrrolo[2,3-b]pyridine-4-carbonitrile]: under 10 nM; `Cc1ccc(O)c(C)c1-c1cnc2[nH]c(-c3cnc(N)s3)cc2c1C#N` [Example 126, (S)-2-(2-aminothiazol-5-yl)-5-(3-hydroxy-2,6-dimethylphenyl)-1H-pyrrolo[2,3-b]pyridine-4-carbonitrile]: under 10 nM.
`Cc1ccc(O)c(C)c1-c1cnc2[nH]c(-c3cnc(N)nn3)cc2c1C#N` [Example 127, (S)-2-(3-amino-1,2,4-triazin-6-yl)-5-(3-hydroxy-2,6-dimethylphenyl)-1H-pyrrolo[2,3-b]pyridine-4-carbonitrile]: the concentration for half-maximal inhibition (IC50) was under 10 nM.
Turning to `Cc1ccc(O)c(C)c1-c1cnc2[nH]c(-c3cnc(N4C[C@@H]5C[C@H]4CO5)nc3)cc2n1` [Example 128, 3-(6-(2-((1S,4S)-2-oxa-5-azabicyclo[2.2.1]heptan-5-yl)pyrimidin-5-yl)-5H-pyrrolo[2,3-b]pyrazin-2-yl)-2,4-dimethylphenol], the IC50 is under 10 nM.
Regarding `Cc1ccc(O)c(C)c1-c1cnc2[nH]c(-c3cnc(CN)nc3)cc2c1C#N` [Example 129, (S)-2-(2-(aminomethyl)pyrimidin-5-yl)-5-(3-hydroxy-2,6-dimethylphenyl)-1H-pyrrolo[2,3-b]pyridine-4-carbonitrile], the IC50 is under 10 nM.
`Cc1ccc(O)c(C)c1-c1cnc2[nH]c(-c3cnc(N)c(C#N)c3)cc2c1C#N` [Example 130, (S)-2-(6-amino-5-cyanopyridin-3-yl)-5-(3-hydroxy-2,6-dimethylphenyl)-1H-pyrrolo[2,3-b]pyridine-4-carbonitrile]: the IC50 is under 10 nM.

The record behind these values is patent publication US20250136596A1, “MEMBRANE-ASSOCIATED TYROSINE- AND THREONINE-SPECIFIC CDC2-INHIBITORY KINASE (PKMYT1) INHIBITORS AND USES THEREOF” (Insilico Medicine IP Limited, priority 2022, published 2025).
